Test results: patent US20040116523A1, “Use of c4-c10 acids for preventing gram-negative bacterial infections” (priority 2000, published 2004)

Columns and labels:
Vibrio cholerae = conditions: 0.25 g/l; cited from earlier work
[1] = tested on: Gram-positive or Gram-negative bacteria; conditions: in vitro, concentration not given; cited from earlier work
Shigella sonnei = conditions: 0.25 g/l; cited from earlier work
S. typhi = conditions: 0.25 g/l; cited from earlier work
Salmonellae = test: Bactericidal or bacteriostatic effect on the Salmonellae at neutral pH; format: cell-based, Salmonella
S. typhi strain Ty2 = test: Mobility by the U-tube culturing technique; format: cell-based; conditions: U tube supplemented with 5 mM
Description: The mobility of each strain was studied using the U-tube culturing technique (Popoff and Le Minor, Guide pour la preparation des serum anti-Salmonella (Guide for preparing salmonella antisera], 1997). When necessary, the culture media were supplemented with chloramphenicol (Cm) at 15 μg/ml.

[2] = tested on: tviB′-lacZ fusion (S. typhi strain Ty266); test: β-galactosidase activity of the tviB′-lacZ fusion (specificity control); format: cell-based; conditions: 5 mM in favourable LB medium
Description: (§1) Each of the strains described above was cultured at 37° C. on agar or in TCS broth. The P-galactosidase activity was determined using 4-methyl-umbelliferyl-p-D-galactopyranoside sold by the company Sigma, according to the technique of Klarsfeld et al. (Mol. Mibrobiol., 1994, 13, 585-597). The results, expressed in P-galactosidase units (fluorescence per hour and per OD600), represent the mean of the values obtained in at least three independent experiments. The standard deviations were less than 10% of the values presented.
The tviB gene has been characterized in S. typhi, and it encodes a GDP-dehydrogenase involved in the biosynthesis of the Vi antigen, which is the capsular polysaccharide of the typhus bacillus (Waxin et al., Res. Microbiol., 1993, 144, 363-371).
The results are reported on FIG. 4, in which it is seen that samples were taken every two hours in order to measure the OD600 (corresponding to the open symbols) and in order to determine the β-galactosidase activity (corresponding to the solid symbols).

[3] = tested on: invF′-lacZ fusion (S. typhi strain Ty272); test: β-galactosidase activity of the invF′-lacZ fusion in favourable LB medium; format: cell-based
Description: (§2) The favourable LB medium (high osmolarity and concentration of Ca^2+ions) was defined as being the standard LB medium modified so as to have a final NaCl concentration of 300 mM and a final Ca concentration of 5 mM.
as §1
(§3) For this, the S. typhi strains Ty267, Ty272 and Ty277, which carry the iagA′-lacZ, invF′-lacZ and sipB′-lacZ fusions, respectively, (see Table I), were cultured in the favourable LB or unfavourable LB medium.
(§4) The action of these two compounds on the expression of the iagA′-lacZ, invF′-lacZ and sipB′-lacZ fusions was studied by measuring the β-galactosidase activity expressed by these fusions as a function of the time of culturing (samples removed every two hours).

[4] = tested on: iagA′-lacZcat fusion in S. typhi strain Ty267; test: "Biotype 100" plate screen for carbon-based substrates that repress the iagA′-lacZcat fusion (β-galactosidase activity); format: cell-based; conditions: "Biotype 100" cupule, amount of substrate not known; favourable LB medium; 36 hours at 37° C.; control cupule without substrate 11 250
Description: as §1
A “Biotype 100”® plate sold by the company BioMerieux is composed of 100 microcupules. Each micro-cupule contains a dehydrated carbon-based substrate, with the exception of the first cupule, which is a control without substrate (the amount of dehydrated substrate per cupule is not given by the manufacturer).
In the context of the present example, these plates were used to search for carbon-based compounds which would block the expression of the invasion genes in Salmonella.
For this, the S. typhi strain Ty267, which is a derivative of the parental strain Ty2 carrying the iagA′-lacZcat transcriptional fusion (Table I), was cultured in TCS broth for 18 hours at 37° C. with shaking (200 rpm).
This culture was then diluted 100-fold in favourable LB medium (0.6 ml of culture for 60 ml of favourable LB), and then this suspension was used immediately to seed the 100 cupules of a “Biotype 100”® plate, in a proportion of 450 μl of suspension per cupule.
After incubation for 36 hours in an incubator at 37° C., the activity of the iagA′-lacZcat fusion in the Ty267 strain was determined for the culture of each cupule.
By comparing the value of the P-galactosidase activity measured in a cupule containing a carbon-based substrate with that of the control cupule without substrate, it was possible to investigate whether a substrate had no effect on, activated or repressed the expression of the iagA′-lacZcat fusion.
The S. typhi strain Ty267 (iagA′-lacZ fusion), suspended in the favourable LB medium, was used to seed the “Biotype 100”® plates.
The β-galactosidase activity expressed by the iagA′-lacZ fusion was determined for the culture in each cupule. With respect to the β-galactosidase activity measured in the control cupule without substrate (11 250 β-galactosidase units), no substrate caused an increase in the expression of the iagA′-lacZ fusion.

[5] = tested on: iagA′-lacZ fusion (S. typhi strain Ty267); test: β-galactosidase activity of the iagA′-lacZ fusion in favourable LB medium; format: cell-based
[6] = tested on: sipB′-lacZ fusion (S. typhi strain Ty277); test: β-galactosidase activity of the sipB′-lacZ fusion in favourable LB medium; format: cell-based
Description: as §2, §1, §3, §4

S. typhimurium C52 = test: Splenic colonization of C57Bl/6 mice infected orally with S. typhimurium C52; format: in vivo
Description: The 5-6-week-old female C57Bl/6 mice used in the context of this experiment originated from the IFFA-CREDO breeding centre (LArbresle, France).
They were infected orally in the following way. The Salmonella strains were cultured in TCS broth for 18 hours at 37° C. with shaking (200 rpm). This culture was then adjusted to […] (in the stationary growth phase, 1 OD600 =1.5 ×10^9 bacteria/ml), and then the number of viable bacteria was controlled by counting on TCS agar.
On the day of infection (DO), the drinking-water bottles of the mice were replaced with bottles containing 100 ml of drinking water to which the required number of bacteria had been added.
After infection for 24 hours ([…]), the bottles containing the contaminated drinking water were replaced with bottles containing uncontaminated drinking water.
Seven days after infection (D+7), the spleens of the mice infected in this way were removed and homogenized separately in 1 ml of physiological saline containing 0.7% of NaCl.
The number of viable bacteria per spleen was determined by plating out dilutions of the homogenate, onto TCS agar.
The effect of the composition of the drinking water on the splenic colonization by Salmonella was estimated using the Student's t test.
The S. typhimurium strain C52 was used to infect C57Bl/6 mice orally.
On this figure, the number of viable bacteria is given as the mean (log10) of the values ± the standard deviation. […]

[7] = tested on: iagA′-lacZ fusion (S. typhi strain Ty267); test: β-galactosidase activity of the iagA′-lacZ fusion in favourable LB medium; format: cell-based; conditions: 5 mM in favourable LB medium, 6 hours at 37° C.
Description: as §2
as §1, with “presented. […]” for “presented.”
The β-galactosidase activity of the iagA′-lacZ fusion was measured after incubation for 6 hours at 37° C. with shaking (200 rpm).
The S. typhi Ty267 strain (iagA′-lacZ fusion) was seeded into favourable LB medium and into favourable LB medium containing the fatty acid to be tested, in the form of its sodium salt, at the final concentration of 5 mM.

[8] = concentration greater than or equal to 2.5 mM, favourable LB medium

## CCCCCCCCCCCC(=O)O [lauric acid]
Vibrio cholerae
  bactericidal activity in vitro on Vibrio cholerae: bactericidal activity
[1]
  bacteriostatic or bactericidal effect on Gram-positive or Gram-negative bacteria: very effective
Shigella sonnei
  bactericidal activity in vitro on Shigella sonnei: bactericidal activity
S. typhi
  bactericidal activity in vitro on S. typhi: bactericidal activity

## O=C([O-])c1ccccc1.[Na+] [sodium benzoate]
Salmonellae
  bactericidal or bacteriostatic effect on the Salmonellae: none of these compounds has any significant bactericidal or bacteriostatic effect
S. typhi strain Ty2
  mobility of the Ty2 strain: same mobility
[2]
  effect on the expression of the tviB′-lacZ fusion: no significant effect
[3]; 1 mM in favourable LB medium
  decrease of the activity of the invF′-lacZ fusion with respect to favourable LB medium without the substance: 50%
[3]; [8]
  expression of the invF gene (invF′-lacZ fusion): very strongly represses
[4]
  β-galactosidase activity expressed by the iagA′-lacZ fusion in the cupule: 245 β-galactosidase units
[5]; 1 mM in favourable LB medium
  decrease of the activity of the iagA′-lacZ fusion with respect to favourable LB medium without the substance: 50%
[5]; [8]
  expression of the iagA gene (iagA′-lacZ fusion): very strongly represses
[6]; 1 mM in favourable LB medium
  decrease of the activity of the sipB′-lacZ fusion with respect to favourable LB medium without the substance: 50%
[6]; [8]
  expression of the sipB gene (sipB′-lacZ fusion): very strongly represses
S. typhimurium C52; 50 mM (EDTA 10 mM) in drinking water, 5 × 10^7 bacteria orally
  effect on the level of splenic colonization / protection (in words): no effect
S. typhimurium C52; 50 mM each (EDTA 10 mM) in drinking water pH 7.2-7.3 from two days before infection, 5 × 10^7 bacteria (125 LD50) orally, D+7, distilled water 7.9 ± 0.3
  Number of viable bacteria in the spleen (mean log10) (Table III): 7.8 ± 0.8 log10
[7]; control 12134 ± 1811
  β-galactosidase activity of the iagA′-lacZ fusion (Table II): 190 ± 17 β-galactosidase units
[7]; sodium salt
  inhibition of the expression of the iagA′-lacZ fusion in S. typhi (in words): inhibit
